Experimental data published in patent publication US10315992B2, “Tetracyline compounds” (Tetraphase Pharmaceuticals, Inc., priority 2012, dated 2019).
Values after ≈ are worked out from the molar mass of the structure shown. Read-outs that look alike come from different tables or passages of the source.

Tests used:
[1] = system: Staphylococcus aureus SA100 (ATCC 13709, MSSA, Smith strain); experiment: MIC assay, SA100; assay type: cell-based
[2] = system: Staphylococcus aureus SA161 (HA-MRSA, tet(M)); experiment: MIC assay, SA161; assay type: cell-based; conditions: for MIC: Staphylococcus aureus, MRSA
[3] = system: Streptococcus pneumoniae SP160 (tet(M)); experiment: MIC assay, SP160; assay type: cell-based
[4] = system: Escherichia coli EC107 (ATCC 25922); experiment: MIC assay, EC107; assay type: cell-based
[5] = system: Enterobacter cloacae EC108 (ATCC 13047); experiment: MIC assay, EC108; assay type: cell-based
[6] = system: Pseudomonas aeruginosa PA673 (2009 urine isolate); experiment: MIC assay, PA673; assay type: cell-based
[7] = system: Pseudomonas aeruginosa PA693 (2009 corneal scraping isolate); experiment: MIC assay, PA693; assay type: cell-based
[8] = system: Pseudomonas aeruginosa PA1145 (strain used in murine pneumonia model); experiment: MIC assay, PA1145; assay type: cell-based
[9] = system: Burkholderia cenocepacia BC240 (cystic fibrosis isolate, MDR); experiment: MIC assay, BC240; assay type: cell-based; conditions: Burkholderia cenocepacia, control compounds
[10] = system: EC 880 ipxC; experiment: MIC assay, EC880; assay type: cell-based
Text: Minimum Inhibitory Concentration (MIC) Assay
The assays were run as follows.

[11] = system: Klebsiella pneumoniae KP109 (ATCC 13883)
[12] = system: Klebsiella pneumoniae KP153 (tet(A), MDR, ESBL+)
[13] = system: Klebsiella pneumoniae KP457 (2009 ESBL+, CTX-M, OXA)
[14] = system: PA 689; experiment: MIC assay, PA689; conditions: Pseudomonas aeruginosa, read-out: MIC PA 689
Method: MICs were determined according to the Clinical and Laboratory Standards Institute (CLSI) guidances (e.g., CLSI. Performance standards for antimicrobial susceptibility testing; nineteenth information supplement. CLSI document M100-S19, CLSI, 940 West Valley Road, Suite 1400, Wayne, Pa. 19087-1898, USA, 2009). Briefly, frozen bacterial strains were thawed and subcultured onto Mueller Hinton Broth (MHB) or other appropriate media (Streptococcus requires blood and Haemophilus requires hemin and NAD). Following incubation overnight, the strains were subcultured onto Mueller Hinton Agar and again incubated overnight. […] Isolated colonies were selected to prepare a starting inoculum equivalent to a 0.5 McFarland standard. […] Test compounds were prepared by dilution in sterile water to a final concentration of 5.128 mg/mL. Antibiotics (stored frozen, thawed and used within 3 hours of thawing) and compounds were further diluted to the desired working concentrations.
The assays were run as follows. Fifty μL of MHB was added to wells 2-12 of a 96-well plate. One hundred μL of appropriately diluted antibiotics was added to well 1. Fifty μL of antibiotics was removed from well 1 and added to well 2 and the contents of well 2 mixed by pipetting up and down five times. Fifty μL of the mixture in well 2 was removed and added to well 3 and mixed as above. Serial dilutions were continued in the same manner through well 12. Fifty μL was removed from well 12 so that all contained 50 μL. Fifty μL of the working inoculum was then added to all test wells. A growth control well was prepared by adding 50 μL of working inoculum and 50 μL of MHB to an empty well. The plates were then incubated at 37° C. overnight, removed from the incubator and each well was read on a plate reading mirror. The lowest concentration (MIC) of test compound that inhibited the growth of the bacteria was recorded.

[15] = system: Staphylococcus epidermidis SE164 (ATCC 12228); experiment: MIC assay, SE164; assay type: cell-based; conditions: ATCC12228, read-out: MIC SE 164 12228
[16] = system: Pseudomonas aeruginosa PA556 (multiple-Mex efflux pump knockout strain); experiment: microbe, parasite or virus in culture; assay type: cell-based
[17] = system: Klebsiella pneumoniae KP109 (ATCC 13883); experiment: MIC assay, KP109; conditions: K. pneumoniae ATCC 13883; Table 4
[18] = Table 6, read-out: MIC EC 880 ipx C
[19] = Table 7, read-out: MIC EC 880 ipxC
[20] = read-out: MIC SP 160 tet M, S. pneumoniae tet(M), Table 6
[21] = read-out: MIC SP 160 tetM, S. pneumoniae tet(M), Table 4
[22] = read-out: MIC SP 160 tetM, S. pneumoniae tet(M), Table 5
[23] = read-out: MIC SP 160 tetM, S. pneumoniae tet(M), Table 7
[24] = read-out: MIC SP 160 tetM, control compounds
[25] = read-out: MIC SP 160 tetM, control compounds, numeric
[26] = ATCC25922, read-out: MIC EC 07 25922, E. coli ATCC 25922, Table 7
[27] = ATCC25922, read-out: MIC EC 107 259 22, E. coli ATCC 25922, Table 6
[28] = ATCC25922, read-out: MIC EC 107 25922, E. coli ATCC 25922, Table 4
[29] = ATCC25922, read-out: MIC EC 107 25922, E. coli ATCC 25922, Table 5
[30] = ATCC25922, read-out: MIC EC 107 25922, control compounds
[31] = ATCC25922, read-out: MIC EC 107 25922, control compounds, numeric
[32] = ATCC13047, read-out: MIC ECI 108 13047
[33] = K. pneumoniae tet(A), MDR, ESBL+, Table 4
[34] = K. pneumoniae tet(A), MDR, ESBL+, Table 5

SMILES: CN(C)c1ccc(O)c2c1C[C@H]1C[C@H]3[C@H](N(C)C)C(O)=C(C(N)=O)C(=O)[C@@]3(O)C(O)=C1C2=O [Minocycline, minocycline]
- MIC ([1]; S. aureus ATCC 13709, MSSA, Table 4, read-out: MIC SA 100 13709): 0.063 µg/mL (≈ 0.138 µM)
- MIC SA 161 tetM ([2]; S. aureus HA-MRSA, tet(M), Table 5): 8 µg/mL (≈ 17.5 µM)
- MIC ([3]; S. pneumoniae tet(M), Table 6, read-out: MIC SP 160 tet M): 2 µg/mL (≈ 4.37 µM)
- MIC ([3]; control compounds, numeric, read-out: MIC SP 160 tetM): 2 µg/mL (≈ 4.37 µM)
- MIC ([4]; ATCC25922, E. coli ATCC 25922, Table 6, read-out: MIC EC 107 259 22): 0.5 µg/mL (≈ 1.09 µM)
- MIC ([4]; ATCC25922, E. coli ATCC 25922, Table 7, read-out: MIC EC 07 25922): 0.5 µg/mL (≈ 1.09 µM)
- MIC ([4]; ATCC25922, control compounds, numeric, read-out: MIC EC 107 25922): 0.5 µg/mL (≈ 1.09 µM)
- MIC ([5]; ATCC13047, E. cloacae ATCC 13047, Table 4, read-out: MIC ECI 108 13047): 2 µg/mL (≈ 4.37 µM)
- MIC ([6]; control compounds, c3, strain PA673 inferred, read-out: MIC): 32 µg/mL (≈ 69.9 µM)
- MIC ([6]; control compounds, numeric, read-out: MIC PA 673): 33 µg/mL (≈ 72.1 µM)
- MIC ([7]; control compounds, c5, strain PA693 inferred, read-out: MIC): 33 µg/mL (≈ 72.1 µM)
- MIC ([7]; control compounds, numeric, read-out: MIC PA 693): 33 µg/mL (≈ 72.1 µM)
- MIC ([8]; control compounds, c6, strain PA1145 inferred, read-out: MIC): 33 µg/mL (≈ 72.1 µM)
- MIC ([8]; control compounds, numeric, read-out: MIC PA 1145): 32 µg/mL (≈ 69.9 µM)
- MIC ([9]; c10, strain BC240 inferred, read-out: MIC): 8 µg/mL (≈ 17.5 µM)
- MIC ([9]; numeric, read-out: MIC BC 240): 8 µg/mL (≈ 17.5 µM)
- MIC [10, 18]: 0.015 µg/mL (≈ 0.0328 µM)
- MIC [10, 19]: 0.02 µg/mL (≈ 0.0437 µM)
- MIC KP 109 13883 [11]: 1 µg/mL (≈ 2.19 µM)
- MIC KP 153 tetA [12]: 8 µg/mL (≈ 17.5 µM)
- MIC KP 457 [13]: 8 µg/mL (≈ 17.5 µM)
- MIC KP 457 CTX- M-15 [13]: 8 µg/mL (≈ 17.5 µM)
- MIC KP 457 CTX-M-15 [13]: 8 µg/mL (≈ 17.5 µM)
- MIC [14]: 8 µg/mL (≈ 17.5 µM)

SMILES: CN(C)[C@@H]1C(O)=C(C(N)=O)C(=O)[C@@]2(O)C(O)=C3C(=O)c4c(O)cccc4C[C@H]3C[C@@H]12 [Sancycline, sancycline]
- MIC ([1]; read-out: MIC SA 100 13709): 1 µg/mL (≈ 2.41 µM)
- MIC ([2]; read-out: MIC SA 161 MRSAtetM): 2 µg/mL (≈ 4.83 µM)
- MIC ([2]; read-out: MIC SA 161 tet M): 2 µg/mL (≈ 4.83 µM)
- MIC ([2]; read-out: MIC SA 161 tetM): 2 µg/mL (≈ 4.83 µM)
- MIC [15]: 4 µg/mL (≈ 9.65 µM)
- MIC [3, 20]: 8 µg/mL (≈ 19.3 µM)
- MIC [3, 21]: 8 µg/mL (≈ 19.3 µM)
- MIC [3, 22]: 8 µg/mL (≈ 19.3 µM)
- MIC [3, 23]: 8 µg/mL (≈ 19.3 µM)
- MIC [3, 24]: 8 µg/mL (≈ 19.3 µM)
- MIC [3, 25]: 8 µg/mL (≈ 19.3 µM)
- MIC [4, 26]: 8 µg/mL (≈ 19.3 µM)
- MIC [4, 27]: 8 µg/mL (≈ 19.3 µM)
- MIC [4, 28]: 8 µg/mL (≈ 19.3 µM)
- MIC [4, 29]: 8 µg/mL (≈ 19.3 µM)
- MIC [4, 30]: 8 µg/mL (≈ 19.3 µM)
- MIC [4, 31]: 8 µg/mL (≈ 19.3 µM)
- MIC [5, 32]: 8 µg/mL (≈ 19.3 µM)
- MIC [16]: 1 µg/mL (≈ 2.41 µM)
- MIC ([16]; read-out: MIC PA 556): 1 µg/mL (≈ 2.41 µM)
- MIC [6]: 32 µg/mL (≈ 77.2 µM)
- MIC ([6]; read-out: MIC PA 673): 33 µg/mL (≈ 79.6 µM)
- MIC [7]: 33 µg/mL (≈ 79.6 µM)
- MIC ([7]; read-out: MIC PA 693): 33 µg/mL (≈ 79.6 µM)
- MIC [8]: 33 µg/mL (≈ 79.6 µM)
- MIC ([8]; read-out: MIC PA 1145): 32 µg/mL (≈ 77.2 µM)
- MIC [10, 19]: 0.25 µg/mL (≈ 0.603 µM)
- MIC ([10]; read-out: MIC EC 880 ipx C): 0.2 µg/mL (≈ 0.483 µM)
- MIC KP 153 tetA [12, 33]: 32 µg/mL (≈ 77.2 µM)
- MIC KP 153 tetA [12, 34]: 32 µg/mL (≈ 77.2 µM)
- MIC KP 457 [13]: 8 µg/mL (≈ 19.3 µM)
- MIC KP 457 CTX- M-15 [13]: 8 µg/mL (≈ 19.3 µM)
- MIC KP 457 CTX-M-15 [13]: 8 µg/mL (≈ 19.3 µM)
- MIC KP 109 13883 [17]: 8 µg/mL (≈ 19.3 µM)
- MIC [14]: 16 µg/mL (≈ 38.6 µM)

SMILES: CN(C)c1cc(NC(=O)CNC(C)(C)C)c(O)c2c1C[C@H]1C[C@H]3[C@H](N(C)C)C(O)=C(C(N)=O)C(=O)[C@@]3(O)C(O)=C1C2=O [Tigecycline, tigecycline]
- MIC ([1]; read-out: MIC SA 100 13709): 0.063 µg/mL (≈ 0.108 µM)
- MIC ([2]; read-out: MIC SA 161 MRSAtetM): 0.125 µg/mL (≈ 0.213 µM)
- MIC ([2]; read-out: MIC SA 161 tet M): 0.125 µg/mL (≈ 0.213 µM)
- MIC ([2]; read-out: MIC SA 161 tetM): 0.13 µg/mL (≈ 0.222 µM)
- MIC [15]: 0.125 µg/mL (≈ 0.213 µM)
- MIC [3, 20]: 0.015 µg/mL (≈ 0.0256 µM)
- MIC [3, 21]: 0.016 µg/mL (≈ 0.0273 µM)
- MIC [3, 22]: 0.02 µg/mL (≈ 0.0341 µM)
- MIC [3, 23]: 0.02 µg/mL (≈ 0.0341 µM)
- MIC [3, 24]: 0.02 µg/mL (≈ 0.0341 µM)
- MIC [3, 25]: 0.02 µg/mL (≈ 0.0341 µM)
- MIC [4, 26]: 0.03 µg/mL (≈ 0.0512 µM)
- MIC [4, 27]: 0.03 µg/mL (≈ 0.0512 µM)
- MIC [4, 28]: 0.031 µg/mL (≈ 0.0529 µM)
- MIC [4, 29]: 0.03 µg/mL (≈ 0.0512 µM)
- MIC [4, 30]: 0.03 µg/mL (≈ 0.0512 µM)
- MIC [4, 31]: 0.03 µg/mL (≈ 0.0512 µM)
- MIC [5, 32]: 0.25 µg/mL (≈ 0.427 µM)
- MIC [16]: 0.25 µg/mL (≈ 0.427 µM)
- MIC ([16]; read-out: MIC PA 556): 0.25 µg/mL (≈ 0.427 µM)
- MIC [6]: 16 µg/mL (≈ 27.3 µM)
- MIC ([6]; read-out: MIC PA 673): 32 µg/mL (≈ 54.6 µM)
- MIC [7]: 32 µg/mL (≈ 54.6 µM)
- MIC ([7]; read-out: MIC PA 693): 33 µg/mL (≈ 56.3 µM)
- MIC [8]: 33 µg/mL (≈ 56.3 µM)
- MIC ([8]; read-out: MIC PA 1145): 16 µg/mL (≈ 27.3 µM)
- MIC ([8]; read-out: MIC PA 1145 Vivi- source): 16 µg/mL (≈ 27.3 µM)
- MIC [10, 18]: 0.015 µg/mL (≈ 0.0256 µM)
- MIC [10, 19]: 0.02 µg/mL (≈ 0.0341 µM)
- MIC KP 153 tetA [12, 33]: 1 µg/mL (≈ 1.71 µM)
- MIC KP 153 tetA [12, 34]: 1 µg/mL (≈ 1.71 µM)
- MIC KP 457 CTX- M-15 ([13]; K. pneumoniae ESBL+, CTX-M, Table 6): 1 µg/mL (≈ 1.71 µM)
- MIC KP 457 CTX- M-15 ([13]; K. pneumoniae ESBL+, CTX-M, Table 7): 1 µg/mL (≈ 1.71 µM)
- MIC KP 457 CTX-M-15 ([13]; control compounds): 1 µg/mL (≈ 1.71 µM)
- MIC KP 457 ([13]; control compounds, numeric): 1 µg/mL (≈ 1.71 µM)
- MIC KP 109 13883 [17]: 0.125 µg/mL (≈ 0.213 µM)
- MIC [14]: 1 µg/mL (≈ 1.71 µM)
